Measurements published in US12139475B2, “2-oxindole compounds” (CHEMOCENTRYX, INC., priority 2016, dated 2024).

Molecular target: T1, CCR(9) (Homo sapiens, UniProt P51686)
T1 construct: MOLT-4 cells were collected by centrifugation at 400×g at room temperature, then suspended at 50 million/ml in human serum; host or cells: MOLT-4
T1 sequence (P51686 1-369): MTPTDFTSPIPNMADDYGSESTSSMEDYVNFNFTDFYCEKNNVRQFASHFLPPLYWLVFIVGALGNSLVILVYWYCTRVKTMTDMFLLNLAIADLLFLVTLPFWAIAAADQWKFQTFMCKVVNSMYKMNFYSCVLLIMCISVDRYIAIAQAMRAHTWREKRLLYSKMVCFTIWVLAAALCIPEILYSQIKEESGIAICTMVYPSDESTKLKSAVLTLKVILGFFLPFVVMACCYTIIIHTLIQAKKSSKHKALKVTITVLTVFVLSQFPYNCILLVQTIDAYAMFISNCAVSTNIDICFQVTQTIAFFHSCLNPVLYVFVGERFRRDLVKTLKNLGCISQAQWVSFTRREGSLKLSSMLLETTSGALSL
Assay: Serum chemotaxis assay (MOLT-4 cells, TECK-induced migration, ChemoTX)
Format: cell-based
Details: MOLT-4 cells in human serum, migration to recombinant human TECK, 90 minutes at 37° C.
Protocol: MOLT-4 cells were obtained from the American Type Culture Collection (Manassas, VA) and cultured in RPMI tissue culture medium supplemented with 10% fetal calf serum (FCS) in a humidified 5% CO2 incubator at 37° C. Recombinant human chemokine proteins TECK was obtained from R&D Systems (Minneapolis, MN). ChemoTX™ chemotaxis microchambers were purchased from Neuro Probe (Gaithersburg, MD). CyQUANT™ cell proliferation kits were purchased from Molecular Probes (Eugene, Oregon). Calcium indicator dye Fluo-4 AM was purchased from Molecular Devices (Mountain View, CA).
A serum chemotaxis assay was used to determine the efficacy of potential receptor antagonists at blocking the migration mediated through chemokine receptors, such as CCR(9). This assay was performed using the ChemoTX® microchamber system with a 5-μm pore-sized polycarbonate membrane. MOLT-4 cells were collected by centrifugation at 400×g at room temperature, then suspended at 50 million/ml in human serum, containing 50 mM HEPES (final pH of 7.2). The compound being tested or an equivalent volume of its solvent (DMSO) was then added to the cell/serum mixture at a final DMSO concentration of 0.125% (v/v), and this mixture was then incubated together at 37° C. for one hour. Separately, recombinant human TECK was diluted with chemotaxis buffer (HBSS+0.1% BSA), generally spanning a range from 0.1 nM to 500 nM, after which 29 μl of diluted chemokine was placed in the lower wells of the ChemoTX® plate. The 5-μm (pore size) polycarbonate membrane was placed onto the plate, and 20 μL of the cell/compound mixture was transferred onto each well of the membrane. The plates were incubated at 37° C. for 90 minutes, after which the polycarbonate membranes were removed and 5 μl of the DNA-intercalating agent CyQUANT (Invitrogen, Carlsbad, CA) was added to the lower wells. The amount of fluorescence, corresponding to the number of migrated cells, was measured using a Spectrafluor Plus plate reader (TECAN, San Jose, CA).
The A2 values were calculated from the following equation, comparing the efficacy of the test compound with that of the DMSO-only control at equi-active chemokine levels: Log(A2)=log[drug(M)]−log[(A′/A)−1] where A reflects the potency of the agonist in the absence of antagonist and A′ reflects the potency of the agonist in the presence of antagonist at a given concentration of drug ([drug(M)]). In Vivo Efficacy Models for Human IBD

| Compound | Chemotaxis A2 |
| --- | --- |
| CC1(C)CCc2cc([C@]3(C)C(=O)N(Cc4cccc(Cl)c4C(=O)O)c4ccc(Cl)cc43)ccc2O1 | +++ (100 nM > A2) |
| COc1cccc(CN2C(=O)[C@@](C)(c3ccc4c(c3)CCC(C)(C)O4)c3cc(Cl)ccc32)c1C(=O)O | +++ (100 nM > A2) |
| CC(C)(C)c1ccc(C2(C)C(=O)N(c3cccc(C(=O)O)c3F)c3ccc(Cl)cc32)cc1 (stereo not shown) | +++ (100 nM > A2) |
| CC1(C)CCc2cc([C@]3(C)C(=O)N(Cc4cccc(C(=O)O)c4)c4ccc(Cl)cc43)ccc2O1 | +++ (100 nM > A2) |
| CC1(C)CCc2cc([C@]3(C)C(=O)N(c4ccc(OC(F)(F)F)c(C(=O)O)c4)c4ccc(Cl)cc43)ccc2O1 | +++ (100 nM > A2) |
| CC(C)(C)c1ccc(C2(C)C(=O)N(c3cccc(C(=O)O)c3)c3c(Cl)cc(Cl)cc32)cc1 (stereo not shown) | + (20000 nM ≥ A2 ≥ 500 nM) |
| CC(C)(C)c1ccc(C2(C)C(=O)N(c3ccc(C(=O)O)cc3)c3ccc(Cl)cc32)cc1 (stereo not shown) | +++ (100 nM > A2) |
| CC(C)(O)c1ccc(C2(C)C(=O)N(c3cccc(C(=O)O)c3)c3ccc(Cl)cc32)cc1 (stereo not shown) | ++ (500 nM > A2 ≥ 100 nM) |
| Cc1ccc2c(c1)N(c1cccc(C(=O)O)c1)C(=O)C2(C)c1ccc(C(C)(C)C)c(F)c1 (stereo not shown) | ++ (500 nM > A2 ≥ 100 nM) |
| Cc1ccc(C(=O)O)c(CN2C(=O)[C@@](C)(c3ccc4c(c3)CCC(C)(C)O4)c3cc(Cl)ccc32)c1 | +++ (100 nM > A2) |
| Cc1ccc2c(c1)N(c1ccc(C(=O)O)cc1)C(=O)C2(C)c1ccc(C(C)(C)C)cc1 (stereo not shown) | ++ (500 nM > A2 ≥ 100 nM) |
| CC(C)(C)c1ccc(C2(C)C(=O)N(c3cncc(C(=O)O)c3)c3ccc(Cl)cc32)cc1 (stereo not shown) | ++ (500 nM > A2 ≥ 100 nM) |
| COc1cc(N2C(=O)[C@@](C)(c3ccc4c(c3)CCC(C)(C)O4)c3cc(Cl)ccc32)ccc1C(=O)O | +++ (100 nM > A2) |
| CC1(C)CCc2cc([C@]3(C)C(=O)N(c4cccc(CCC(=O)O)c4)c4ccc(Cl)cc43)ccc2O1 | +++ (100 nM > A2) |
| Cc1ccc(N2C(=O)[C@@](C)(c3ccc(C(C)(C)C)cc3)c3cc(Cl)ccc32)cc1C(=O)O | +++ (100 nM > A2) |
| CC(C)(C)c1ccc(C2(C)C(=O)N(c3cc(C(=O)O)ccn3)c3ccc(Cl)cc32)cc1 (stereo not shown) | +++ (100 nM > A2) |
| CC1(C)CCc2cc([C@]3(C)C(=O)N(c4ccc(F)c(C(=O)O)c4)c4ccc(Cl)cc43)ccc2O1 | +++ (100 nM > A2) |
| CC1(c2ccc(C(C)(O)C(F)(F)F)cc2)C(=O)N(c2cccc(C(=O)O)c2)c2ccc(Cl)cc21 (stereo not shown) | ++ (500 nM > A2 ≥ 100 nM) |
| Cc1ccc(CN2C(=O)[C@@](C)(c3ccc4c(c3)CCC(C)(C)O4)c3cc(Cl)ccc32)c(C(=O)O)c1 | +++ (100 nM > A2) |
| CC1(C)Cc2cc(C3(C)C(=O)N(c4cccc(C(=O)O)c4)c4ccc(Cl)cc43)ccc2O1 (stereo not shown) | +++ (100 nM > A2) |
| CC(C)Oc1ccc(N2C(=O)[C@@](C)(c3ccc4c(c3)CCC(C)(C)O4)c3cc(Cl)ccc32)cc1C(=O)O | +++ (100 nM > A2) |
| CC1(C)CCc2cc(C3(C)C(=O)N(c4cccc(C(=O)O)c4)c4cc(Cl)c(OC(F)(F)F)cc43)ccc2O1 (stereo not shown) | +++ (100 nM > A2) |
| CC1(C)CCc2cc([C@]3(C)C(=O)N(c4ccc(C(=O)O)cc4)c4ccc(Cl)cc43)ccc2O1 | +++ (100 nM > A2) |
| COc1cccc(C(=O)O)c1CN1C(=O)[C@@](C)(c2ccc3c(c2)CCC(C)(C)O3)c2cc(Cl)ccc21 | ++ (500 nM > A2 ≥ 100 nM) |
| CC1(C)CCc2cc([C@]3(C)C(=O)N(c4ccccc4CC(=O)O)c4ccc(Cl)cc43)ccc2O1 | +++ (100 nM > A2) |
| Cn1nnn(Cc2ccc(N3C(=O)[C@@](C)(c4ccc5c(c4)CCC(C)(C)O5)c4cc(Cl)ccc43)cc2)c1=O [(S)-5-chloro-3-(2,2-dimethylchroman-6-yl)-3-methyl-1-(4-((4-methyl-5-oxo-4,5-dihydro-1H-tetrazol-1-yl)methyl)phenyl)indolin-2-one] | +++ (100 nM > A2) |

| Compound | Chemotaxis A2 |
| --- | --- |
| CC1(C)CCc2cc(C3(C)C(=O)N(c4cccc(C(=O)O)c4)c4cc(Cl)c(Cl)cc43)ccc2O1 (stereo not shown) | +++ (100 nM > A2) |
| Cc1cc(C(=O)O)cc(N2C(=O)[C@@](C)(c3ccc4c(c3)CCC(C)(C)O4)c3cc(Cl)ccc32)c1 | +++ (100 nM > A2) |
| CC1(C)CCc2cc([C@]3(C)C(=O)N(c4ccc(C(=O)O)c(Cl)c4)c4ccc(Cl)cc43)ccc2O1 | +++ (100 nM > A2) |
| CC1(C)CCc2cc([C@]3(C)C(=O)N(c4cccc(OCC(=O)O)c4)c4ccc(Cl)cc43)ccc2O1 | +++ (100 nM > A2) |
| CC1(C)CCc2cc(C3(C)C(=O)N(Cc4ccc(C(=O)O)cc4)c4ccc(Cl)cc43)ccc2O1 (stereo in doubt) [4-[[(3R)-5-chloro-3-(2,2-dimethylchroman-6-yl)-3-methyl-2-oxo-indolin-1-yl]methyl]benzoic acid] | +++ (100 nM > A2) |
| CC1(C)CCc2cc([C@]3(C)C(=O)N(Cc4cc(Cl)ccc4C(=O)O)c4ccc(Cl)cc43)ccc2O1 | +++ (100 nM > A2) |
| Cc1cccc(CN2C(=O)[C@@](C)(c3ccc4c(c3)CCC(C)(C)O4)c3cc(Cl)ccc32)c1C(=O)O | +++ (100 nM > A2) |
| COc1ccc(CN2C(=O)[C@@](C)(c3ccc4c(c3)CCC(C)(C)O4)c3cc(Cl)ccc32)c(C(=O)O)c1 | +++ (100 nM > A2) |
| CC(C)(F)c1ccc(C2(C)C(=O)N(c3cccc(C(=O)O)c3)c3ccc(Cl)cc32)cc1 (stereo not shown) | ++ (500 nM > A2 ≥ 100 nM) |
| CC(C)Oc1ccc(C2(C)C(=O)N(c3cccc(C(=O)O)c3)c3ccc(Cl)cc32)cc1 (stereo not shown) | +++ (100 nM > A2) |
| CC(C)(C)c1ccc(C2(C)C(=O)N(c3ccc(C(=O)O)c(F)c3)c3ccc(Cl)cc32)cc1 (stereo not shown) | ++ (500 nM > A2 ≥ 100 nM) |
| CC1(C)CCc2cc([C@]3(C)C(=O)N(c4cc(Cl)cc(C(=O)O)c4)c4ccc(Cl)cc43)ccc2O1 | +++ (100 nM > A2) |
| CC1(C)CCc2cc([C@]3(C)C(=O)N(c4cc(F)cc(C(=O)O)c4)c4ccc(Cl)cc43)ccc2O1 | +++ (100 nM > A2) |
| CC1(c2ccc(C3(C(F)(F)F)CC3)cc2)C(=O)N(c2cccc(C(=O)O)c2)c2ccc(Cl)cc21 (stereo not shown) | +++ (100 nM > A2) |
| CC1(C)CCc2cc([C@]3(C)C(=O)N(c4ccc(CCCC(=O)O)cc4)c4ccc(Cl)cc43)ccc2O1 | +++ (100 nM > A2) |
| CC1(C)CCc2cc([C@]3(C)C(=O)N(c4ccc(C(F)(F)F)c(C(=O)O)c4)c4ccc(Cl)cc43)ccc2O1 | +++ (100 nM > A2) |
| CC1(C)CCc2cc(C3(C)C(=O)N(c4cccc(C(=O)O)c4)c4ccc(C5CC5)cc43)ccc2O1 (stereo not shown) | +++ (100 nM > A2) |
| CC(C)(C)c1ccc(C2(C)C(=O)N(c3cc(F)cc(C(=O)O)c3)c3ccc(Cl)cc32)cc1 (stereo not shown) | +++ (100 nM > A2) |
| CC(C)(C)c1ccc(C2(C)C(=O)N(c3cccc(C(=O)O)c3)c3ccc(Cl)cc32)cc1 (stereo in doubt) [3-[(3R)-3-(4-tert-butylphenyl)-5-chloro-3-methyl-2-oxo-indolin-1-yl]benzoic acid] | +++ (100 nM > A2) |
| CC1(C)CCc2cc([C@]3(C)C(=O)N(c4cc(C#N)cc(C(=O)O)c4)c4ccc(Cl)cc43)ccc2O1 | ++ (500 nM > A2 ≥ 100 nM) |
| CC(C)COc1ccc(N2C(=O)[C@@](C)(c3ccc4c(c3)CCC(C)(C)O4)c3cc(Cl)ccc32)cc1C(=O)O | +++ (100 nM > A2) |
| CC1(C)CCc2cc([C@]3(C)C(=O)N(Cc4ccc(Cl)cc4C(=O)O)c4ccc(Cl)cc43)ccc2O1 | +++ (100 nM > A2) |
| CC1(C)CCc2cc([C@]3(C)C(=O)N(Cc4ccccc4C(=O)O)c4ccc(Cl)cc43)ccc2O1 | +++ (100 nM > A2) |
| Cc1cccc(C(=O)O)c1CN1C(=O)[C@@](C)(c2ccc3c(c2)CCC(C)(C)O3)c2cc(Cl)ccc21 | +++ (100 nM > A2) |
| COc1c(C)cc(N2C(=O)[C@@](C)(c3ccc4c(c3)CCC(C)(C)O4)c3cc(Cl)ccc32)cc1C(=O)O | +++ (100 nM > A2) |
| CC(C)(C)c1ccc([C@]2(C)C(=O)N(c3ccc(F)c(C(=O)O)c3)c3ccc(Cl)cc32)cc1 | +++ (100 nM > A2) |
